Test results as given in patent publication US10561616B2, “Sustained release dosage forms for a JAK1 inhibitor” (Incyte Corporation, priority 2013, dated 2020).

How the values were obtained:
JAK2 (TPO) = test: PK derived JAK2 (TPO) inhibition by dose regimen
Source text: (§1) It is believed that this efficacy/side-effect profile may be due to the QD dose achieving maximal JAK1 signaling (tied to efficacy) with low JAK2 inhibition at the trough, as JAK2 signaling is tied to hematopoiesis. This hypothesis is supported by the PK derived JAK1 (IL-6) and JAK2 (TPO) inhibition data for the compound of Formula at various doses (Table 7).

[1] = test system: patients with plaque psoriasis; test: Placebo controlled study in plaque psoriasis, 28 days (sPGA, PASI 50); assay type: in vivo, human
Description: A double-blind (sponsor unblinded), randomized, placebo controlled study was conducted in approximately 48 subjects treated for 28 days. Eligibility requirements included: active plaque psoriasis for at least 6 months at screening; body surface area (BSA) of plaque psoriasis of ≥5%; psoriasis area and severity index (PASI) score of ≥5; static physician's global assessment (sPGA) score of ≥3; inadequate response to topical therapies; innovative design allowing rapid progress between doses, with conservative safety assessment. […] Once the 4th subject (block of 3 active 1 PBO) completed 28 days administration without a Grade 3 or higher AE, the next group of 12 subjects initiated treatment with the next highest dose; while the first 4 subjects in this group are treated for 28 days, the 1st group is filled 60 subjects with moderate to severe psoriasis were randomized. […] A sequential method of recruitment was used, increasing from the lowest dose to the highest, each after the completion of 28 days for the first four subjects in the previous dose. The results at 28 days are show in Table 8 (PASI 50 is Psoriasis Area and Severity Index). […] The 5 mg tofacitinib dose is the approved dosage level for RA for safety reasons in the US.

JAK1 (IL-6) = test: PK derived JAK1 (IL-6) inhibition by dose regimen
Source text: as §1

[2] = target: T1, human JAK1 (a.a. 837-1142) (Homo sapiens, UniProt P23458); test: In vitro JAK kinase assay (HTRF), JAK1; assay type: biochemical; settings: measured at 1 mM ATP
T1 construct: human JAK1 (a.a. 837-1142); His tag (N); made in house; host or cells: insect cells (baculovirus)
T1 sequence (P23458 849-1154): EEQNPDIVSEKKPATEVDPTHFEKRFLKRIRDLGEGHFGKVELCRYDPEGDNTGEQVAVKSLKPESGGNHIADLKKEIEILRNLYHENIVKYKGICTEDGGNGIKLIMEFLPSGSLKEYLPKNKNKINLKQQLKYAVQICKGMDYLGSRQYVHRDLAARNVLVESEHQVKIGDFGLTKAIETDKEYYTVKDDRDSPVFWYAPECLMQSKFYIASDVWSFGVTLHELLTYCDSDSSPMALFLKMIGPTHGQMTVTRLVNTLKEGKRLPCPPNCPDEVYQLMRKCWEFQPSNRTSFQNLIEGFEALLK
Description: The compound of Formula I herein was tested for inhibitory activity of JAK targets according to the following in vitro assay described in Park et al., Analytical Biochemistry 1999, 269, 94-104. The catalytic domains of human JAK1 (a.a. 837-1142) and JAK2 (a.a. 828-1132) with an N-terminal His tag were expressed using baculovirus in insect cells and purified. The catalytic activity of JAK1 and JAK2 was assayed by measuring the phosphorylation of a biotinylated peptide. The phosphorylated peptide was detected by homogenous time resolved fluorescence (HTRF). IC50s of compounds were measured for each kinase in the 40 microL reactions that contain the enzyme, ATP and 500 nM peptide in 50 mM Tris (pH 7.8) buffer with 100 mM NaCl, 5 mM DTT, and 0.1 mg/mL (0.01%) BSA. For the 1 mM IC50 measurements, ATP concentration in the reactions was 1 mM. Reactions were carried out at room temperature for 1 hr and then stopped with 20 μL 45 mM EDTA, 300 nM SA-APC, 6 nM Eu-Py20 in assay buffer (Perkin Elmer, Boston, Mass.). Binding to the Europium labeled antibody took place for 40 minutes and HTRF signal was measured on a Fusion plate reader (Perkin Elmer, Boston, Mass.).

psoriasis = settings: 5 mg; 12 weeks; cited from earlier work
RA = settings: 5 mg BID; 3 months; cited from earlier work

**Q.** With N#CCC1(n2cc(-c3ncnc4[nH]ccc34)cn2)CN(C2CCN(C(=O)c3ccnc(C(F)(F)F)c3F)CC2)C1 [compound of Formula I, {1-{1-[3-fluoro-2-(trifluoromethyl)isonicotinoyl]piperidin-4-yl}-3-[4-(7H-pyrrolo[2,3-d]pyrimidin-4-yl)-1H-pyrazol-1-yl]azetidin-3-yl}acetonitrile] as the compound, how does the “Average TPO inhibition” value (JAK2 (TPO); 100 mg BID) read?
**A.** The value was 11%.

**Q.** What about the “Trough TPO inhibition” value (JAK2 (TPO); 100 mg BID) of the same compound?
**A.** The value was 2%.

**Q.** And the “Average TPO inhibition” value (JAK2 (TPO); 100 mg QD)?
**A.** Its value is 7%.

**Q.** And the “Trough TPO inhibition” value (JAK2 (TPO); 100 mg QD)?
**A.** The value was less than 1%.

**Q.** And the “Average TPO inhibition” value (JAK2 (TPO); 200 mg BID)?
**A.** The value was 24%.

**Q.** What about the “Trough TPO inhibition” value (JAK2 (TPO); 200 mg BID) of the same compound?
**A.** The value was 13%.

**Q.** And the “Average TPO inhibition” value (JAK2 (TPO); 200 mg QD)?
**A.** Its value is 11%.

**Q.** And the “Trough TPO inhibition” value (JAK2 (TPO); 200 mg QD)?
**A.** Its value is less than 1%.

**Q.** And the “Average TPO inhibition” value (JAK2 (TPO); 300 mg QD)?
**A.** The value was 18%.

**Q.** And the “Trough TPO inhibition” value (JAK2 (TPO); 300 mg QD)?
**A.** Its value is 1%.

**Q.** What about the “Average TPO inhibition” value (JAK2 (TPO); 400 mg BID) of the same compound?
**A.** The value was 33%.

**Q.** And the “Trough TPO inhibition” value (JAK2 (TPO); 400 mg BID)?
**A.** The value was 16%.

**Q.** And the “Average TPO inhibition” value (JAK2 (TPO); 600 mg QD)?
**A.** The value was 36%.

**Q.** What about the “Trough TPO inhibition” value (JAK2 (TPO); 600 mg QD) of the same compound?
**A.** The value was 4%.

**Q.** And the “% PASI 50” value ([1]; 100 mg BID (as headed))?
**A.** The value was 22.2%.

**Q.** What about the “% sPGA (clear or minimal)” value ([1]; 100 mg BID (as headed)) of the same compound?
**A.** Its value is 11.1%.

**Q.** What about the “Mean % change sPGA” value ([1]; 100 mg BID (as headed)) of the same compound?
**A.** Its value is −22.2%.

**Q.** And the “% PASI 50” value ([1]; 200 mg BID)?
**A.** The value was 44.4%.

**Q.** And the “% sPGA (clear or minimal)” value ([1]; 200 mg BID)?
**A.** Its value is 33.3%.

**Q.** And the “Mean % change sPGA” value ([1]; 200 mg BID)?
**A.** Its value is −35.2%.

**Q.** And the “% PASI 50” value ([1]; 200 mg QD)?
**A.** The value was 66.7%.

**Q.** And the “% sPGA (clear or minimal)” value ([1]; 200 mg QD)?
**A.** The value was 22.2%.

**Q.** And the “Mean % change sPGA” value ([1]; 200 mg QD)?
**A.** Its value is −29.4%.

**Q.** What about the “% PASI 50” value ([1]; 600 mg QD) of the same compound?
**A.** Its value is 81.8%.

**Q.** What about the “% sPGA (clear or minimal)” value ([1]; 600 mg QD) of the same compound?
**A.** Its value is 45.5%.

**Q.** What about the “Mean % change sPGA” value ([1]; 600 mg QD) of the same compound?
**A.** Its value is −42.4%.

**Q.** And the “Average IL-6 inhibition” value (JAK1 (IL-6); 100 mg BID)?
**A.** The value was 44%.

**Q.** What about the “Trough IL-6 inhibition” value (JAK1 (IL-6); 100 mg BID) of the same compound?
**A.** Its value is 22%.

**Q.** What about the “Average IL-6 inhibition” value (JAK1 (IL-6); 100 mg QD) of the same compound?
**A.** The value was 30%.

**Q.** What about the “Trough IL-6 inhibition” value (JAK1 (IL-6); 100 mg QD) of the same compound?
**A.** Its value is 7%.

**Q.** What about the “Average IL-6 inhibition” value (JAK1 (IL-6); 200 mg BID) of the same compound?
**A.** Its value is 64%.

**Q.** And the “Trough IL-6 inhibition” value (JAK1 (IL-6); 200 mg BID)?
**A.** Its value is 52%.

**Q.** And the “Average IL-6 inhibition” value (JAK1 (IL-6); 200 mg QD)?
**A.** Its value is 39%.

**Q.** And the “Trough IL-6 inhibition” value (JAK1 (IL-6); 200 mg QD)?
**A.** Its value is 11%.

**Q.** And the “Average IL-6 inhibition” value (JAK1 (IL-6); 300 mg QD)?
**A.** The value was 47%.

**Q.** What about the “Trough IL-6 inhibition” value (JAK1 (IL-6); 300 mg QD) of the same compound?
**A.** The value was 16%.

**Q.** What about the “Average IL-6 inhibition” value (JAK1 (IL-6); 400 mg BID) of the same compound?
**A.** The value was 69%.

**Q.** What about the “Trough IL-6 inhibition” value (JAK1 (IL-6); 400 mg BID) of the same compound?
**A.** The value was 56%.

**Q.** What about the “Average IL-6 inhibition” value (JAK1 (IL-6); 600 mg QD) of the same compound?
**A.** Its value is 61%.

**Q.** And the “Trough IL-6 inhibition” value (JAK1 (IL-6); 600 mg QD)?
**A.** The value was 31%.

**Q.** What about the IC50 [2] of the same compound?
**A.** Its IC50 is no more than 5 nM.

**Q.** With C[C@@H]1CCN(C(=O)CC#N)C[C@@H]1N(C)c1ncnc2[nH]ccc12.O=C(O)CC(O)(CC(=O)O)C(=O)O [tofacitinib citrate] as the compound, how does the “PASI 50 score” value (psoriasis) read?
**A.** The value was 65.3%.

**Q.** And the ACR20 (RA)?
**A.** The ACR20 was 59%.

**Q.** And the ACR50 (RA)?
**A.** Its ACR50 is 31%.

**Q.** And the ACR70 (RA)?
**A.** Its ACR70 is 15%.
